Experiment [1] has as its system KMH2. Put plainly: Mitotic index and chromosomal aberrations, KMH2. Type of experiment: cell-based, human. On the procedure:
(§1) The mitotic index and chromosomal aberrations for each of the cell lines were evaluated after treatment with either 20 μmol or 10 μmol EDO-S101 in DMSO. Each cell line was cultured at 37° C. in the presence of RPMI 1640 supplemented with 10% FCS and antibiotics. Colcemid (0.1 ug/ml) was added 2 h before harvesting and slides with chromosomes in metaphase were prepared following the standard methanol/acetic acid (3/1, v/v) procedure. The slides were stored at −20° C. until use.
(§2) FISH was performed using a combination of standard procedures from the recommended protocols for chromosome analysis, following telomere and centromere staining, using PNA probes. In all, 100 metaphases were scored per in vitro dose exposure.
(§3) The mitotic index was determined by measurement of the sum of all cells in prophase, metaphase, anaphase and telophase divided by the total number of cells.

Experiment [2] concerns Hodgkin lymphoma cell lines. Put plainly: Mitotic index and metaphases after EDO-S101 treatment, all cell lines. The experiment is classed as cell-based, human. On the procedure:
as §1, §2, §3

Experiment [3] concerns L428 cells. Put plainly: L428 xenograft in NSG mice, CD30 immunofluorescence of cytospin slides. Details: key to Spleen, red pulp activation, diffuse (CD30 staining score per animal) / Liver, Tumour cell infiltration (CD30 staining score per animal) / Bone marrow (CD30 staining score per animal): 0: without any staining; minimal, <1% staining; 2: mild, 1% staining; 3: moderate, <10% staining; marked, 10-40% staining; 5: severe, >40% of cells staining. Type of experiment: in vivo. The text has this: Immunodeficient NOD-SCID-gammac−/− (NSG) mice aged 5 to 6 weeks were purchased from Charles River (NOD.Cg-Prkdcscid II2rgtm1Wjl/SzJ). The mice arrived two weeks before the beginning of the experiments and were housed in micro-isolator cages during the entire course of the study. Immediately prior to the injection of Hodgkin lymphoma cells, mice were exposed to 3 Gy gamma irradiation using an IBL637 ^137Cs irradiator at a dose rate of 0.61 Gy/min. From 10^3 to 10^6 cells, either from the original cell lines or following amplification, were injected intravenously via the retro-orbital sinus. The mice were sacrificed by cervical dislocation and different organs were analysed and tumoural infiltration examined using multiple techniques.
Two independent experiments were performed to investigate the dose-effect of EDO-S101 in NSG mice eight weeks after xenografting with L428 cells as in Example 8. The aim of the protocol shown in FIG. […]
The mice were sacrificed by cervical dislocation. The sampled organs consisted of the eyes (site of injection), liver, spleen and bone marrow. Following dissection of different organs, including tumours, the first portion was used for flow cytometry (FACS) and cytogenetic analyses while the second was fixed in 4% paraformaldehyde (PFA) for immunohistochemistry (IHC). To obtain a single cell suspension, the tissues were first cut into pieces. Thereafter, the cells were physically disaggregated using an 80 μm nylon cell strainer and filtered a second time through a 70 μm nylon cell strainer (BD Biosciences, Erembodegem, Belgium).
Cells were cytospun onto poly-L-lysine-coated glass slides at 700 rpm for 4 min, fixed with 10% formalin for 10 min, and treated with 0.25% Triton X-100 solution for 10 min. After blocking with 5% bovine serum albumin (Sigma), the cells were incubated with an anti-CD30 antibody (DAKO A/S, Glostrup, Denmark). Then, cells were treated with Cyanine 3 anti-mouse IgG (Invitrogen, Carlsbad, CA). As a negative control, staining was carried out in the absence of primary antibody. The L428-s cell line served as positive control.
Individual microscopic findings following immunofluorescence CD30 staining of cytopsin slides: “0”=without any staining; “1”=minimal, <1% staining; “2”=mild, 1% staining; “3”=moderate, <10% staining; “4”=marked, 10-40% staining; “5”=severe, >40% of cells staining.

For experiment [4], the system named is L428s. Put plainly: Clonogenic survival in methylcellulose, L428s. The experiment is classed as cell-based, human. The conditions noted are these: very low doses (0.1 and 0.5 μmol). As to the method: In all examples, the human Hodgkin lymphoma-derived cell lines L428, L428-c, KMH2, L591, L540, L1236, HDLM2 and SUP-HD were obtained from Dr Steffen Junker (Aarhus University Denmark). All cell lines were cultured in Gibco RPMI 1640 medium supplemented with Glutamax, 10% FBS and antibiotics at 37° C. […] The immunophenotype, P53 status and MSI characterization of the Hodgkin lymphoma cell lines was determined using anti-CD30, CD15, CD20 and CD14 antibodies.
This test was performed on four Hodgkin lymphoma cell lines (L428, L428s, KMH2 and L540). Each was cultured with EDO-S101 at doses of 0, 0.1, 0.5, 1, 10 and 20 μmol in DMSO. The cell lines were cultured in methylcellulose (Stem cell Technologies) at a concentration of 10^5/ml at 37° C. and 5% CO2. The surviving fraction was determined by measuring the viability of colonies generated before and after exposure. Only colonies with more than 50 cells were counted. Each data point represents the average and SD from three independent experiments performed in triplicate.

The test system of experiment [5] is R100. Put plainly: ATM/ATR transcripts, R100. The experiment is classed as cell-based, human. As to conditions: bendamustine resistant R100; EDO-S101 alone.
The test system of experiment [6] is Hodgkin lymphoma cell lines (KMH2, HDML2, L540, L1236 and L426). Put plainly: IC50 comparison of bendamustine, vorinostat and EDO-S101, five cell lines. Type of experiment: cell-based, human. On the procedure:
• (a) Five Hodgkin lymphoma cell lines (KMH2, HDML2, L540, L1236 and L426) were cultured separately in the presence of bendamustine, vorinostat and EDO-S101 dissolved in DMSO at 37° C. L1236-derived Hodgkin lymphoma cell lines were selected as they have an acquired stable resistance to bendamustine (R100) or an ability to display continuous growth upon extended exposure to sub-lethal concentrations of bendamustine (R25, R50 and R75). A detailed description of the L1236-R Hodgkin lymphoma cell lines is disclosed in De Filippi et al, ASH 2015, Abstract. #2479. In these tests, the L1236-100R bendamustine resistant strain was used. […] Control cells were cultured in the same final concentration of DMSO. The number of viable cells was assessed at 24, 48 and 72 hours through a Countess™ automated cell counter (Invitrogen), each experiment being repeated three times and the results given being the mean of the three results±SD.

The structures appear in SMILES notation.

For orientation: IC50 means the concentration needed to halve the response being measured. With `Cn1c(CCCCCCC(=O)NO)nc2cc(N(CCCl)CCCl)ccc21` [EDO-S101], the mitotic index entry in experiment [1] is listed as “very low mitotic index”. In addition, the “chromosomal aberrations in metaphase” value in experiment [1] (telomere and centromere staining) is “numerous chromosomal aberrations”. Besides, the metaphases observed result was “only a few metaphases of poor quality” in experiment [2] (10 μmol) and “No metaphases were observed” in experiment [2] (20 μmol, any cell line). Also, in experiment [2] (all Hodgkin lymphoma cell lines, 24 h of treatment), the “sensitivity in mitotic index assay” value is given as “remarkably high sensitivity”. Further, the “Spleen, red pulp activation, diffuse (CD30 staining score per animal)” value in experiment [3] (1*60 mg/kg) was 0; in experiment [3] (1*80 mg/kg), 0; in experiment [3] (2*60 mg/kg, 60 mg/kg) it was 0. The “Liver, Tumour cell infiltration (CD30 staining score per animal)” value in experiment [3] (1*60 mg/kg, 60 mg/kg) was found to be 0; in experiment [3] (1*80 mg/kg), 0; in experiment [3] (2*60 mg/kg, 60 mg/kg), 0. Also, in experiment [3] (2*60 mg/kg, 60 mg/kg), the “Bone marrow (CD30 staining score per animal)” value turned out to be 0. For the same compound, in experiment [3] (single dose of 80 mg/kg), the “tumour cells in organs (liver, spleen, bone marrow)” value was “No tumour cells were observed in any organs”. Further, the “clones observed (clonogenic survival)” value in experiment [4] is given as “only macrophagic clones being observed”. Moreover, in experiment [5], the ATM/ATR transcripts entry is “correct the constitutive ATM/ATR unbalance by upregulating ATR and downregulating ATM transcripts”. The same compound gave an IC50 in experiment [6] (Homo sapiens, range over all cell lines tested, including L1236-R) of 1000 to 2000 nM. Moreover, in experiment [6] (tumour cells of Hodgkin lymphoma), the “IC50s relative to bendamustine” value was “about ten-fold lower than those of bendamustine”.

Source of the values: US12440475B2, “Hodgkin lymphoma therapy” (priority 2016, dated 2025).
